Where “and” joins values, the source holds several entries; their conditions need not be identical. Equal values may be shown once. Results filed as inconclusive are left out.
Tested on: MX-1 breast xenograft, intrarenal, nude mice, tumor weight
Experiment: NCI In Vivo Anticancer Drug Screen. Data for tumor model Human Mammary Carcinoma MX-1 Xenograft (intrarenal inoculation) in NU/NU BALB/C (nude) mice
Details: endpoint: mean tumor weight change, higher = larger tumour
Outline: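 Transplantable tumors established in mice; animals dosed with compound or vehicle; survival or tumor size then recorded. Result reported as treated (T) divided by vehicle control (C).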

[1] = dose: 37.5 mg/kg/injection, schedule: Q04DX003 (ip), vehicle: saline
[2] = dose: 18.75 mg/kg/injection, schedule: Q04DX003 (ip), vehicle: water
[3] = dose: 37.5 mg/kg/injection, schedule: Q04DX003 (ip), vehicle: water

For `CN=NN(C)C(=O)NC`, the T/C [1] was 112 % of control, the T/C (dose: 75.0 mg/kg/injection, schedule: Q04DX003 (ip), vehicle: saline) was 79 % of control and the T/C (dose: 108.0 mg/kg/injection, schedule: Q04DX003 (ip), vehicle: saline) was 2 % of control. For the same compound, the T/C (dose: 150.0 mg/kg/injection, schedule: Q04DX003 (ip), vehicle: saline) was 15 % of control, the T/C (dose: 180.0 mg/kg/injection, schedule: Q04DX003 (ip), vehicle: saline with Tween-80) was 108 % of control and the T/C (dose: 300.0 mg/kg/injection, schedule: Q04DX003 (ip), vehicle: saline) was -13 % of control. For the same compound, the T/C (dose: 500.0 mg/kg/injection, schedule: Q04DX003 (ip), vehicle: saline with Tween-80) was 124 % of control.

In the case of `O=c1n(CC2CO2)c(=O)n(CC2CO2)c(=O)n1CC1CO1` (centres undefined), the T/C (dose: 25.0 mg/kg/injection, schedule: Q01DX010 (sc), vehicle: saline) is reported as 37 % of control, the T/C (dose: 25.0 mg/kg/injection, schedule: Q04DX003 (sc), vehicle: suspension in saline) is reported as 18 % of control and the T/C (dose: 50.0 mg/kg/injection, schedule: Q04DX003 (sc), vehicle: suspension in saline) is reported as -100 % of control.

For `OC1(CSc2ccccc2)CCCCC1`, the T/C (dose: 300.0 mg/kg/injection, schedule: Q04DX003 (sc), vehicle: saline with Tween-80) was 98 % of control and the T/C (dose: 600.0 mg/kg/injection, schedule: Q04DX003 (sc), vehicle: saline with Tween-80) was 112 % of control.

`Cc1ccc(NN=O)nc1` was tested, and the T/C (dose: 9.35 mg/kg/injection, schedule: Q04DX003 (ip), vehicle: water) was 11 % of control, the T/C (dose: 9.37 mg/kg/injection, schedule: Q04DX003 (ip), vehicle: water) was -9 % of control and the T/C (dose: 18.7 mg/kg/injection, schedule: Q04DX003 (ip), vehicle: water) was 6 % of control. For the same compound, the T/C [2] was -21 % of control and the T/C [3] was -69 % of control.

For `Cc1ccc(C2=CSC3=NCCN23)cc1Cl`, the T/C [1] was 85 % of control.

In the case of `O=C[C@@H](CO)O[C@H](C=O)n1cnc2c(=O)[nH]cnc21`, the T/C (dose: 100.0 mg/kg/injection, schedule: Q04DX003 (sc), vehicle: saline with Tween-80) is reported as 73 % of control, the T/C (dose: 200.0 mg/kg/injection, schedule: Q04DX003 (sc), vehicle: saline with Tween-80) is reported as 35 % of control and the T/C (dose: 400.0 mg/kg/injection, schedule: Q04DX003 (sc), vehicle: saline with Tween-80) is reported as -63 % of control.

With `Cc1ccc(C(=O)NC2C(=O)NC(C(C)C)C(=O)N3CCCC3C(=O)N(C)CC(=O)N(C)C(C(C)C)C(=O)OC2C)c2c1Oc1c(c(C(=O)NC3C(=O)NC(C(C)C)C(=O)N4CCCC4C(=O)N(C)CC(=O)N(C)C(C(C)C)C(=O)OC3C)c3nc(-c4ccccc4)c(=O)oc3c1C)N2` (centres undefined) the T/C (dose: 1.0 mg/kg/injection, schedule: Q04DX003 (ip), vehicle: water) was 16 % of control and 26 % of control and the T/C (dose: 2.0 mg/kg/injection, schedule: Q04DX003 (ip), vehicle: water) was 5 % of control.

For `C/C=C/C=C\C=C/C(O)CC(OP(=O)(O)O)C(C)(O)/C=C/C1CC=CC(=O)O1` (centres undefined), the T/C (dose: 6.0 mg/kg/injection, schedule: Q04DX003 (ip), vehicle: water) was 86 % of control, the T/C (dose: 12.0 mg/kg/injection, schedule: Q04DX003 (ip), vehicle: water) was 56 % of control and the T/C (dose: 24.0 mg/kg/injection, schedule: Q04DX003 (ip), vehicle: water) was 50 % of control.

In the case of `CN1CCN(CN2C(=O)C3C4C=CC(C3C2=O)C2C3C(=O)N(CN5CCN(C)CC5)C(=O)C3C42)CC1` (centres undefined), the T/C (dose: 9.3 mg/kg/injection, schedule: Q04DX003 (ip), vehicle: water) is reported as 98 % of control, the T/C [2] is reported as 106 % of control and the T/C (dose: 25.0 mg/kg/injection, schedule: Q04DX003 (ip), vehicle: water) is reported as 67 % of control. For the same compound, the T/C [3] was 83 % of control, the T/C (dose: 50.0 mg/kg/injection, schedule: Q04DX003 (ip), vehicle: water) was 52 % of control and the T/C (dose: 75.0 mg/kg/injection, schedule: Q04DX003 (ip), vehicle: other) was 122 % of control. For the same compound, the T/C (dose: 75.0 mg/kg/injection, schedule: Q04DX003 (ip), vehicle: water) was 72 % of control and 94 % of control and the T/C (dose: 100.0 mg/kg/injection, schedule: Q04DX003 (ip), vehicle: water) was 45 % of control.

With `CO[C@@]12[C@@H]3N[C@@H]3CN1C1=C(C(=O)C(N3CCCC3)=C(C)C1=O)[C@@H]2COC(N)=O` the T/C (dose: 1.5 mg/kg/injection, schedule: Q04DX003 (ip), vehicle: saline with Tween-80) was 6 % of control and 12 % of control and the T/C (dose: 12.0 mg/kg/injection, schedule: Q04DX003 (ip), vehicle: saline with Tween-80) was -98 % of control.

For `CNC(=S)C#N`, the T/C (dose: 75.0 mg/kg/injection, schedule: Q04DX003 (ip), vehicle: saline + Tween-80 + alcohol) was 51 % of control.

`COC12[C@@H]3N[C@@H]3CN1C1=C(C(=O)C(NCCSSCCNC3=C(C)C(=O)C4=C(C3=O)C(COC(N)=O)[C@]3(OC)C5N[C@@H]5CN43)=C(C)C1=O)[C@@H]2COC(N)=O` (some centres undefined) was tested, and the T/C (dose: 3.12 mg/kg/injection, schedule: Q04DX003 (ip), vehicle: DMSO) was 24 % of control and the T/C (dose: 6.25 mg/kg/injection, schedule: Q04DX003 (ip), vehicle: DMSO) was -41 % of control.

With `CC1=C[P+](c2ccccc2)(c2ccccc2)C=C(c2ccccc2)O1` the T/C (dose: 0.75 mg/kg/injection, schedule: Q04DX003 (ip), vehicle: saline) was 124 % of control.

In the case of `Nc1nc(N)c2cc(CNc3ccc(C(=O)NC(CC(=O)O)CC(=O)O)cc3)ccc2n1`, the T/C (dose: 150.0 mg/kg/injection, schedule: Q04DX003 (sc), vehicle: Klucel (hydroxypropylcellulose) (HPC)) is reported as 103 % of control, the T/C (dose: 300.0 mg/kg/injection, schedule: Q04DX003 (sc), vehicle: Klucel (hydroxypropylcellulose) (HPC)) is reported as 86 % of control and the T/C (dose: 600.0 mg/kg/injection, schedule: Q04DX003 (sc), vehicle: Klucel (hydroxypropylcellulose) (HPC)) is reported as 91 % of control. For the same compound, the T/C (dose: 1200.0 mg/kg/injection, schedule: Q04DX003 (sc), vehicle: Klucel (hydroxypropylcellulose) (HPC)) was 101 % of control.

In the case of `CCOC(=O)C(N)CSC(=O)NC` (centres undefined), the T/C (dose: 112.5 mg/kg/injection, schedule: Q04DX003 (ip), vehicle: Klucel (hydroxypropylcellulose) (HPC)) is reported as 54 % of control, the T/C (dose: 125.0 mg/kg/injection, schedule: Q04DX003 (sc), vehicle: saline) is reported as 72 % of control and the T/C (dose: 225.0 mg/kg/injection, schedule: Q04DX003 (ip), vehicle: Klucel (hydroxypropylcellulose) (HPC)) is reported as 14 % of control. The T/C (dose: 225.0 mg/kg/injection, schedule: Q04DX003 (sc), vehicle: saline) was 26 % of control, the T/C (dose: 450.0 mg/kg/injection, schedule: Q04DX003 (ip), vehicle: Klucel (hydroxypropylcellulose) (HPC)) was 9 % of control and the T/C (dose: 450.0 mg/kg/injection, schedule: Q04DX003 (sc), vehicle: saline) was 2 % of control. The T/C (dose: 900.0 mg/kg/injection, schedule: Q04DX003 (sc), vehicle: saline) was -19 % of control.

`CN(CCN(C)C(=O)CCOS(C)(=O)=O)C(=O)CCOS(C)(=O)=O` was tested, and the T/C (dose: 37.5 mg/kg/injection, schedule: Q04DX003 (sc), vehicle: saline) was 7 % of control, the T/C (dose: 75.0 mg/kg/injection, schedule: Q04DX003 (sc), vehicle: saline) was -100 % of control and the T/C (dose: 150.0 mg/kg/injection, schedule: Q04DX003 (sc), vehicle: saline) was -100 % of control. The T/C (dose: 300.0 mg/kg/injection, schedule: Q04DX003 (sc), vehicle: saline) was -44 % of control.

In the case of `O=C1C=C(N2CC2)C(=O)C(N2CC2)=C1N1CC1`, the T/C (dose: 25.0 micrograms/kg/injection, schedule: Q04DX003 (ip), vehicle: saline) is reported as 4 % of control and the T/C (dose: 400.0 micrograms/kg/injection, schedule: Q04DX003 (ip), vehicle: saline) is reported as -100 % of control.

With `CN(C)c1ccc(C(=C2C=CC(=[N+](C)C)C=C2)c2ccc(N(C)C)cc2)cc1` (tested in a mixture with another compound) the T/C (dose: 15.0 mg/kg/injection, schedule: Q04DX003 (sc), vehicle: saline with Tween-80) was 124 % of control, the T/C (dose: 30.0 mg/kg/injection, schedule: Q04DX003 (sc), vehicle: saline with Tween-80) was 84 % of control and the T/C (dose: 60.0 mg/kg/injection, schedule: Q04DX003 (sc), vehicle: saline with Tween-80) was 98 % of control. For the same compound, the T/C (dose: 120.0 mg/kg/injection, schedule: Q04DX003 (sc), vehicle: saline with Tween-80) was 75 % of control and the T/C (dose: 150.0 mg/kg/injection, schedule: Q04DX003 (sc), vehicle: saline with Tween-80) was 73 % of control.

In the case of `NC(=S)c1ncn(C2OC(COC=O)C(OC=O)C2OC=O)c1NC=O` (centres undefined), the T/C (dose: 50.0 mg/kg/injection, schedule: Q04DX003 (ip), vehicle: saline with Tween-80) is reported as 105 % of control, the T/C (dose: 100.0 mg/kg/injection, schedule: Q04DX003 (ip), vehicle: Klucel (hydroxypropylcellulose) (HPC)) is reported as 47 % of control and the T/C (dose: 100.0 mg/kg/injection, schedule: Q04DX003 (ip), vehicle: saline with Tween-80) is reported as 103 % of control. The T/C (dose: 200.0 mg/kg/injection, schedule: Q04DX003 (ip), vehicle: Klucel (hydroxypropylcellulose) (HPC)) was 31 % of control, the T/C (dose: 200.0 mg/kg/injection, schedule: Q04DX003 (ip), vehicle: saline with Tween-80) was 65 % of control and the T/C (dose: 400.0 mg/kg/injection, schedule: Q04DX003 (ip), vehicle: Klucel (hydroxypropylcellulose) (HPC)) was 48 % of control. The T/C (dose: 400.0 mg/kg/injection, schedule: Q04DX003 (ip), vehicle: saline with Tween-80) was 9 % of control.

— PubChem BioAssay AID298 (DTP/NCI, 2004)
